# Experimental data reported in publication PMC9570478, “Purification, Biochemical and Kinetic Characterization of a Novel Alkaline sn-1,3-Regioselective Triacylglycerol Lipase from Penicillium crustosum Thom Strain P22 Isolated from Moroccan Olive Mill Wastewater” (International Journal of Molecular Sciences, 2022).
# Experiments:
# Lipolase = target: T1, Lipolase (Thermomyces lanuginosus, UniProt O59952); assay: pH-Stat titration; type: biochemical; details: commercial preparation; TC8 emulsion
# T1 construct: gene LIP; commercial enzyme preparation (Novozymes)
# T1 sequence (O59952 23-291): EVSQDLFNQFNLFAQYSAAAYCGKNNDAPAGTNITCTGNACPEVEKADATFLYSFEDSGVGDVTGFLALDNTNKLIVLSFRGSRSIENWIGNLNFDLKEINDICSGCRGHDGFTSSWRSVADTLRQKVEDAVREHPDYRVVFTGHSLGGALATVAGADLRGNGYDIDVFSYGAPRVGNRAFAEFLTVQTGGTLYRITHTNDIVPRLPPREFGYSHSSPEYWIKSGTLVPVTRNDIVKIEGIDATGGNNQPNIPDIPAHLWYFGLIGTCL
# Palatase 20000 L = target: T2, Palatase 20000 L (Rhizomucor miehei, UniProt P19515); assay: pH-Stat titration; type: biochemical; details: commercial preparation; TC8 emulsion
# T2 construct: commercial enzyme preparation (Novozymes)
# T2 sequence (P19515 95-363): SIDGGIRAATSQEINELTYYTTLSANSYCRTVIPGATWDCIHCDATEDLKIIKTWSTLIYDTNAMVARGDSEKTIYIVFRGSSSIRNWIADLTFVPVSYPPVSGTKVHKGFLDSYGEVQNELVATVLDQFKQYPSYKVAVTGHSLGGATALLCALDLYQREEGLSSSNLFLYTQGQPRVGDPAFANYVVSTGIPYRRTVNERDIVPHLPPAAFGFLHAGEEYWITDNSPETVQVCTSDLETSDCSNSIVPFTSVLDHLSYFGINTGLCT
compound,measurement,setting,value
CCCCCCCC(=O)OCC(COC(=O)CCCCCCC)OC(=O)CCCCCCC [TC8],pH-Stat titration,Lipolase,almost the same substrate specificity profile as PCrL under the same experimental conditions
same,pH-Stat titration,Palatase 20000 L,almost the same substrate specificity profile as PCrL under the same experimental conditions
